Laboratory results taken from patent US20230103965A1, “NOVEL ACTIVATORS OF THE LIPIDATING TRANSPORTER ATP BINDING CASSETTE PROTEIN TYPE 1 (AB-CA1) AND THERAPEUTIC USES THEREOF” (RAMOT AT TEL-AVIV UNIVERSITY LTD., priority 2020, published 2023).

Assays:
[1] = molecular target: T1, ECD2 of ABCA1 (Homo sapiens, UniProt O95477); experiment: Microscale thermophoresis (MST) binding to ECD2
T1 construct: The proteins used in these experiments were Extra-Cellular Domain 1 (ECD1) of ABCA1 and Extra-Cellular Domain 2 (ECD2); purchased Biomatick
T1 sequence (O95477 1372-1656 limits assumed): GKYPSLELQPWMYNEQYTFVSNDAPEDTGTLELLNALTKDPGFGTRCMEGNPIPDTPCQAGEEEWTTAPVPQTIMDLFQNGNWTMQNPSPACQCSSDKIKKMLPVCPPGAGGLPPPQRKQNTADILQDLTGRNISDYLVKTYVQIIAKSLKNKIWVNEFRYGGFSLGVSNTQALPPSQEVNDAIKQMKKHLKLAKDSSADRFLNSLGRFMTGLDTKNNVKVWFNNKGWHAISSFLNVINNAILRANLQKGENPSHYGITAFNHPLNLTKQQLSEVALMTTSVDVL
Description: Microscale thermophoresis (MST) measurements. MST measurements of the binding of the HTS hits to the extracellular domain (ECD) of ABCA1 were performed by two complimentary methods utilizing either fluorescently labeled proteins or the endogenous fluorescence of unlabeled proteins. This was pursued as follows:
(i) MST utilizing labeled proteins: The proteins used in these experiments were Extra-Cellular Domain 1 (ECD1) of ABCA1 and Extra-Cellular Domain 2 (ECD2) which were provided by the manufacturer (Biomatick) at a concentration of 7.1 μM. The buffers of protein samples were exchanged on a desalting PD-10 column to MST labelling buffer (Nanotemper Technologies, NT.115). […] The concentrations of the labeled protein samples solutions were determined by Spectrophotometer (Carey 60) at 280 nm and 650 nm and adjusted to a final concentration 7.1 μM, aliquoted in 30 μl and stored at −80° C. for further use. Protein-compound interactions were analyzed by microscale thermophoresis. […] All dissociation constants (KD) were calculated to a binding model assuming a 1:1 stoichiometry per binding partner. […]
These experiments employed the MST ligand binding to protein assay (FIG. 13 and EXAMPLE 1). […] Two complementary MST tests were performed, in which either the proteins were labeled with a fluorescence moiety or the endogenous fluorescence of the unlabeled proteins was monitored).

[2] = molecular target: T2, ABCA1 (Homo sapiens, UniProt O95477); experiment: ABCA1 dependency of cholesterol efflux in BHK cells with inducible ABCA1; type: cell-based; settings: for ABCA1 dependency of the effect on cholesterol efflux: BHK cells, presence vs absence of ABCA1
T2 construct: expressed in transfected cells; host or cells: BHK (baby hamster kidney) cells, ABCA1 induced with mifepristone
T2 sequence (O95477 whole entry): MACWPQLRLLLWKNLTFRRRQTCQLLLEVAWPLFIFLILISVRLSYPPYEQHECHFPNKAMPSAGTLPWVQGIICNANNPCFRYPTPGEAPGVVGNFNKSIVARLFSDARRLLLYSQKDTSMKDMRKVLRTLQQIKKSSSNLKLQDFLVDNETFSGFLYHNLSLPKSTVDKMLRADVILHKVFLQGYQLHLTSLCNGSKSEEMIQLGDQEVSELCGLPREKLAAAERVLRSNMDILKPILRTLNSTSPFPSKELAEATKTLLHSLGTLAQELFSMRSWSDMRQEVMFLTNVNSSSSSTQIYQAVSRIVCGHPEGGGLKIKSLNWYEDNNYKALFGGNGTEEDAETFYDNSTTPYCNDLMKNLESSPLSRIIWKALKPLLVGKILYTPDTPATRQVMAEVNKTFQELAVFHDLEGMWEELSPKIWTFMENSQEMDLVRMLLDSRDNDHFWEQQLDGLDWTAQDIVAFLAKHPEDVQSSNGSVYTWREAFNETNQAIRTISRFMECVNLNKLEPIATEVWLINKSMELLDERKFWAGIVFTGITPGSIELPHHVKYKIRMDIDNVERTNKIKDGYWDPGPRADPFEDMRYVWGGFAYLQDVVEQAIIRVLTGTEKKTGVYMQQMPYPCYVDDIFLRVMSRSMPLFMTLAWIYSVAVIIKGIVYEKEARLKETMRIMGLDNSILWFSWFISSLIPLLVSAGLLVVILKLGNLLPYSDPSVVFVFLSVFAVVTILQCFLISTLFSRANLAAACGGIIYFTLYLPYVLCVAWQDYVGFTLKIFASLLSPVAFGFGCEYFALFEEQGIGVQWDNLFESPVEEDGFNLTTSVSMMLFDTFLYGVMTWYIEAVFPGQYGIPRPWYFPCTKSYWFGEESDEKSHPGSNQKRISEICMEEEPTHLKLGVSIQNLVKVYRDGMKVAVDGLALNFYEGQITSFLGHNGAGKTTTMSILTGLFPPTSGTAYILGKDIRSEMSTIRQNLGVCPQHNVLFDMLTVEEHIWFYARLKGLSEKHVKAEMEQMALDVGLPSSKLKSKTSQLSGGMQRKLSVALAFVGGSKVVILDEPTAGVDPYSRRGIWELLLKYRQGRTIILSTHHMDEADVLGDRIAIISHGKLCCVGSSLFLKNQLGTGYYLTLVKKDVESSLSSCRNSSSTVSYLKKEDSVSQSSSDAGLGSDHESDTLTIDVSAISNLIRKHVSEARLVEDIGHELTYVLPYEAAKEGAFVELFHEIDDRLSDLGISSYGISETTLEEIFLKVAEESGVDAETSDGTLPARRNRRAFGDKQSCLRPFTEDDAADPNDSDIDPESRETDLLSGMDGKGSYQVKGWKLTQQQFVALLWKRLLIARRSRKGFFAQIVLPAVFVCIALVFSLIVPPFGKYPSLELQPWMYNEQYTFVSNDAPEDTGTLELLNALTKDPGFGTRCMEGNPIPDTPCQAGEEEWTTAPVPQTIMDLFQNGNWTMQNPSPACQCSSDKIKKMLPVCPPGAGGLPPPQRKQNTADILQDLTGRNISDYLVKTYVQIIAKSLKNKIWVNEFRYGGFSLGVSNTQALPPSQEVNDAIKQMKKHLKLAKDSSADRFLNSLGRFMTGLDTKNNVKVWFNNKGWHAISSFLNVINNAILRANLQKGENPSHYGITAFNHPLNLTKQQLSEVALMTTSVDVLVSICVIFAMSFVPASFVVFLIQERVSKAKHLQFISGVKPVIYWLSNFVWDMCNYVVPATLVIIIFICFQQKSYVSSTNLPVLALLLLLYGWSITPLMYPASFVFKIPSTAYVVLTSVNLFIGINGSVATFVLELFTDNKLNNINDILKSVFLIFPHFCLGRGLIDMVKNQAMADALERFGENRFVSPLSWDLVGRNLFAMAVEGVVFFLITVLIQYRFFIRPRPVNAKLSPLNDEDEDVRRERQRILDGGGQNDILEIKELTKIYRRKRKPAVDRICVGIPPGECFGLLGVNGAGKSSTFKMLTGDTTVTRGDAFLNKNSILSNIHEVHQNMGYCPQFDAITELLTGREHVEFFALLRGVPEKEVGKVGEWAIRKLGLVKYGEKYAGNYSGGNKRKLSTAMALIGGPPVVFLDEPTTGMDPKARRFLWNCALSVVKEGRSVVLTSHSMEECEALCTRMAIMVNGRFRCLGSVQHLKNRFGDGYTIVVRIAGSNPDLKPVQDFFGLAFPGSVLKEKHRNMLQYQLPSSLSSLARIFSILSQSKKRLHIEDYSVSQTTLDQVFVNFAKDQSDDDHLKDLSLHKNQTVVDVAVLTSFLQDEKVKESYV
Description: (§1) Mife=Mifepristone which induces the expression of ABCA1.
as §1
(iii) Assessment of the ABCA1 dependency of the effects of the hits on cholesterol efflux. These experiments investigated the extent to which ABCA1 is indeed the target of the hits. This was performed utilizing BHK (baby hamster kidney) cells with inducible expression of ABCA1 followed by determination of the effects for the presence and absence of ABCA1 on the translocation of cholesterol to apoE4.

[3] = test system: Rodent Astrocytes; experiment: In situ Aβ plaque digestion by apoE4 astrocytes (orthogonal assay); type: cell-based
Description: FIG. 7: Schematic representation of assay measuring in situ A$ plaque degradation by apoE3 and apoE4 astrocytes. The assay is designed to measure the ability of astrocytes to digest senile plaques from brain slides of APP mice, which is impaired in apoE4 expressing astrocytes.
FIG. 9: Activity of test compounds (HTS hits) in the plaque digestion assay. Positive control is CS-6253 (25 μg/ml). Test compound concentration is 50 μM.
In situ Aβ plaque degradation by apoE3 and apoE4 astrocytes. This assay is based on measurement of the ability of the astrocytes to clear Aβ plaques following their co-incubation with brain sections of 5×FAD mice, which contain Aβ plaques. Accordingly, 20 μm coronal frozen brain sections were prepared from 9-13-month-old 5×FAD mice using cryostat and placed on glass slides, 3-4 consecutive sections in each slide. The slides were kept at −80° C. until used. At the beginning of the experiment, the slices were incubated for 48 hr at 37° C. with apoE3 and apoE4 astrocytes (10^5 cells in 100 μl medium per slice) in the presence of 50 μM, or otherwise indicated concentrations, of the HTS hits. The slides were gently placed in round petri dishes with thick wet paper, surrounding the slides. PapPen was used to draw liquid repellent borders of the sections to avoid spillage of coating out of the slides. The slides were gently washed of all containing remains by placing them in PBS for 10 minutes, and were then fixated with 4% PFA for 10 minutes, followed by 0.1% Triton solution for 10 minutes. The slides were then incubated with blocking solution (8% Horse Serum, 0.3% Triton, 1 gr/ml BSA, 0.02% Sodium Azide in PBS) for 30 minutes after which they were immunohistochemically stained with primary anti-PAmyloid (6E10) antibody at a dilution of 1:750 in blocking solution for 1 hr at room temperature. This was then followed by washing (×5 with PBST) and incubation with the secondary antibody (Alexa Fluor® 488 donkey α-mouse IgG, A-21202 at dilution of 1:250 at room temperature for 45 minutes. Nuclei were stained with DAPI (Vektashield, Burlingame, Calif.; H-1200). Analysis of the Aβ plaque burden was performed as percentage of the area covered in plaques using the ImageJ software.
(i) Orthogonal assay which monitors the extent to which the hits can reverse the impaired ability of apoE4 astrocytes to digest Aβ senile plaques in vitro. The principle of this orthogonal assay is presented in FIGS. 7 & 8 [17], whereas the activity of the HTS hits in this assay is presented in FIG. 9.

MST binding to ECD2 [1] | ABCA1 dependency of the effect on cholesterol efflux [2] | Structure (SMILES) | Lipidation of apoE4 in the absence of ABCA1 ([2]; BHK cells not expressing ABCA1) | Plaque digestion assay (50 μM) Rodent Astrocytes ([3]; Table 2) [%] | Plaque digestion assay (50 μM) Rodent Astrocytes ([3]; Table 4) [%] | ABCA1 dependency BHK Cells ([2]; Table 2) | ABCA1 dependency BHK Cells ([2]; Table 4) | Cholesterol efflux from ABCA1 expressing BHK cells ([2]; BHK cells expressing ABCA1)
do not bind at all | depend on the presence of ABCA1 | Cc1nn(CC(=O)c2ccc(Br)s2)c(C)c1[N+](=O)[O-] [Hit #3] | did not stimulate any lipidation of apoE4 | 78 | 78 | – | – | –
do not bind at all | depend on the presence of ABCA1 | CC(C)(C)C(=O)COC(=O)c1ccccc1SCc1cc(-c2ccco2)on1 [Hit #4] | – | 62 | 62 | – | – | –
– | – | O=[N+]([O-])c1ccc(N2CCCCC2)c2nonc12 [Hit #7] | – | 93 | 93 | No activity | No activity | had no effect
– | – | C[C@]12CC[C@@H](O)CC1CCC1C2CC[C@](C)(C(=O)O)C1/C=C1/Nc2ccccc2C1=O (stereo partly drawn) [Hit #12] | – | 105 | 105 | – | – | –
– | – | CSC(SC)=C1CC/C(=C/c2ccc(N(C)C)cc2)C1=O [Hit #14] | – | 134 | 134 | – | – | –
